{"source": "patent US20080269266A1", "about": "“NOVEL COMPOUNDS 747” (ASTRAZENECA AB, priority 2007, published 2008)", "key": {"[1]": {"target": "T1, human cytochrome P450 (CYP) 2C19 (Homo sapiens, UniProt P33261)", "T1 construct": "made in house; host or cells: yeast cell lines (microsomal fractions)", "T1 sequence (P33261 whole entry, canonical isoform)": "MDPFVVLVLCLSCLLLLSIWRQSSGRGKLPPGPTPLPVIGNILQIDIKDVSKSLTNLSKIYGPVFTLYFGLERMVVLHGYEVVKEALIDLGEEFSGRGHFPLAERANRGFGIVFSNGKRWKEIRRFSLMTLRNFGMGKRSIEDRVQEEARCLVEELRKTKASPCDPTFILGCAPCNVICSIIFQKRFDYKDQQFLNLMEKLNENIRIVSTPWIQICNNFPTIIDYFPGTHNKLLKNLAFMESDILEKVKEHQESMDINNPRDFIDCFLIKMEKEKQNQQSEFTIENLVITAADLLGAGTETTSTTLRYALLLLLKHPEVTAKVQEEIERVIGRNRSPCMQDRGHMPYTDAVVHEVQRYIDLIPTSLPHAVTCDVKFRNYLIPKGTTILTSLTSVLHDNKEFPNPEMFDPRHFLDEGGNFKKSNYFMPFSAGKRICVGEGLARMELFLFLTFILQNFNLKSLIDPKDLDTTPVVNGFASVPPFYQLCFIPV", "experiment": "Cytochrome P450 Inhibition Assay 2C19", "type": "in vitro ADME", "settings": "read-out: IC50 range, CYP 2C19", "method": "The inhibitory potential (IC50) of test compounds against 5 human cytochrome P450 (CYP) isoforms (1A2, 2C9, 2C19, 3A4 and 2D6) was assessed using an automated fluorescent end point in vitro assay modified from Crespi (Crespi and Stresser, 2000). Microsomal subcellular fractions prepared from Yeast cell lines expressing each human CYP isoform were used as an enzyme source in this assay. The activity of the 5 major human CYPs was determined from the biotransformation of a number of coumarin substrates to fluorescent metabolites, in the presence of NADPH. […] Stock solutions of each CYP, with its respective substrate, were prepared in phosphate buffer pH7.4 (see Table 1) and 178 μl was added to the well of a black solid, flat bottom, 300 μl 96 well is microtitre plate (Corning Costar). […] After pre-incubating at 37° C. for 5 min the reactions were started with addition of NADPH (20 μl, concentration shown in Table 1). The final solvent content in each incubation was <=2% (1% from the test compound and a maximum of 1% from the substrate). The appropriate solvent controls and substrate blanks were included in each experiment to assess control activity and identify any inherent fluorescence due to the test compounds. In addition, known inhibitors of each CYP were included as positive controls (see Table 3 for inhibitor concentrations and expected IC50 ranges). The reactions were stopped at defined timepoints (see Table 1) by quenching with 100 μl of solvent (acetonitrile:0.5M Tris buffer 80:20 v/v). The plates were read on a fluorimeter (Spectrafluor Plus) at the appropriate excitation and emission wavelengths (listed in Table 2) and the percent activity, corrected for control, was plotted against the test compound concentration."}, "[2]": {"experiment": "Solubility in 0.1 M phosphate buffer pH 7.4", "type": "physicochemical", "settings": "pH 7.4, 24 h, 25° C.", "method": "Solubility values are determined by agitation of compounds in 0.1 M phosphate buffer at pH 7.4 for 24 h at 25° C. The supernatant is separated from undissolved material by double centrifugation and subsequently analyzed and quantified against a standard of known concentration in DMSO using generic HPLC-UV methodology coupled with mass spectral peak identification (J. Med. Chem., 2006, 49(23), 6672-6682)."}}, "data": [{"smiles": "COc1ccc2[nH]c([S+]([O-])Cc3ncc(C)c(OC)c3C)nc2c1", "note": "(centres unmarked) [Omeprazole]", "values": [{"measurement": "IC50", "setting": "[1]", "result": "1.5 to 4.6", "unit": "µM"}]}, {"smiles": "COc1cc(Nc2cc(C)n[nH]2)nc(N2CCC[C@H]2c2cc(-c3ncccn3)no2)n1", "note": "[mixture of Forms 1 and 3, (S)-6-Methoxy-2-{2-[3-(pyrimid-2-yl)isoxazol-5-yl]pyrrolidin-1-yl}-4-(5-methyl-1H-pyrazol-3-ylamino)pyrimidine]", "values": [{"measurement": "Solubility", "setting": "[2]", "result": "around 18 μM"}]}]}
